The values below come from patent publication US8853188B2, “Compositions and methods for cancer treatment” (Women and Infants Hospital of RI, Inc., priority 2005, dated 2014).

For data set [1], the system named is keratinocytes. The data set can be described thus: Apoptosis by DNA fragmentation, FIG. 4A. Type of data set: cell-based. The protocol:
(§1) Materials and methods. Proliferation was measured by MTS and BrdU incorporation assays. Apoptosis was assessed by DNA fragmentation, Cell Death Detection ELISA and caspase-3-assays. Effect of B3CD on TrkB signaling by BDNF was assessed by Western Blot analysis of AKT and ERK phosphorylation. The effect on angiogenesis was determined by chick chorioallantoic membrane (CAM) assay and aortic ring assay.
(§2) B3CD was tested on the panel of cell described above. […] Such cell-type specificity is not uncommon. […] However, keratinocytes were not affected by B3CD (FIG. 4A; Lane-2). In addition, caspase-3 activity was increased by B3CD (FIG. 4B). These studies indicated an underlying apoptotic mechanism in the anticancer activity of B3CD.

Data set [2] relates to ovarian cancer cells. Put plainly: Apoptosis by DNA fragmentation, FIG. 4A. It is filed as cell-based. The method, then:
as §1, §2

The test system of data set [3] is prostate cancer cells. The data set can be described thus: Apoptosis by DNA fragmentation, FIG. 4A. Type of data set: cell-based. The method, then: as §1, §2
The subject of data set [4] is caspase-3. Put plainly: Caspase-3 assay in neuroblastic cells, FIG. 4B. It is filed as cell-based. The protocol: as §1, §2
In data set [5] the test system is VEGF induced angiogenesis. Put plainly: Chick chorioallantoic membrane (CAM) assay. Type of data set: in vivo. The protocol: as §1
The antiproliferative effect of B3CD on endothelial cells was further investigated.
The ability of B3CD to inhibit angiogenesis/neovascularization was tested. Preliminary studies were carried out using chick chorioallantoic membrane (CAM) assay. Calcidiol or B3CD were deposited in the presence of growth factor (VEGF) and deposited on the CAM and eggs were incubated for 3 days at 37° C. (3% CO2). The control carried the growth factor alone. VEGF induces angiogenesis which results in sprouting of capillaries from the large vessels. The compounds diffuse out and any inhibitory molecule would reduce the growth of blood vessel network.

The test system of data set [6] is TrkB signaling by BDNF. Put plainly: Effect on TrkB signaling by BDNF (Western Blot). As to conditions: neuroblastoma cells. Type of data set: cell-based. The method, then: as §1
Neuroblastoma cells were treated with B3CD for 48 hrs. […] AT 0.5 nM, B3CD inhibited >50% (p<0.035) and >90% at […] (p<0.01) viability and proliferation respectively.
In general terms: Immunoblotting shows a protein as a band on a membrane.

For data set [7] the following is noted: mouse, in vivo. The method, then: FIG. 6A. In vivo studies to determine apparent systemic toxicity of B3CD. Mice were injected with the specified amounts of B3CD (i.p.) once in 48 hr for 28 days. The animals were weighed to assess the effect of B3CD on change in body weight.
FIG. 6B. At the end of the experiment (6A) mice were sacrificed and blood collected to estimate serum calcium as a measure of hypercalcemia.
A major concern was the potential systemic toxicity of B3CD due to hypercalcemia since B3CD (FIG. 1) is a derivative of calcidiol, which is a family member of calcitriol (Schmidt-Gayk H, Bouillon R, Roth H J. Measurement of vitamin D and its metabolites (calcidiol and calcitriol) and their clinical significance. Scand J Clin Lab Invest Suppl. 1997; 227:35-45). Therapeutic doses of calcitriol lead to increased serum calcium and consequently death; therefore, hypercalcemia is a hallmark of lethality of pharmacologic doses of calcitriol. In the event that further testing in vivo might show lethal calcemic side effects, preliminary studies were carried out to determine any overt toxic effects in a murine model.
The effect of B3CD on serum calcium levels in SCID mice was tested. These studies were carried out in Boston University School of Medicine, Boston, Mass., in accordance with institutional guidelines. B3CD, calcidiol and calcitriol were formulated in 80% polyethylene glycol in PBS and were administered as i.p. injections once in 48 hours for 28 days. Animals were euthanized, sera collected and analyzed immediately for serum calcium in the hospital core facility. The animals were divided into 4 groups of 5 animals each.

Data set [8] has as its system SK-N-SH cells. Put plainly: Cell viability by MTS assay. The following applies: 48 hours. It is filed as cell-based. The protocol: (§3) SK-N-SH and SH-SY5Y neuroblastic cells were treated with increasing doses of calcidiol or B3CD (0, 25, 50, 100, 200, 400 and 800 nM) for 48 hours. Cell viability was assessed by MTS assay and proliferation was determined by BrdU incorporation assay.
On the technique in general: Tetrazolium dyes change colour on reduction, which living cells bring about.

Data set [9] has as its system SK-N-SH cells. Put plainly: Proliferation by BrdU incorporation assay. Type of data set: cell-based. The following applies: 0-800 nM, 48 hours. The protocol: as §3
A general note: Dividing cells build labelled thymidine or BrdU into new DNA.

Data set [10] deals with SH-SY5Y cells. Put plainly: DNA laddering by agarose gel electrophoresis. As to conditions: 250 nM, 48 hours. It is filed as cell-based. The method, then:
(§4) Initially, during regular microscopic examination of the B3CD treated cells, the cells were condensing and floating in the culture dishes showing indications of apoptosis. In order to determine apoptosis, SK-N-SH and SH-SY5Y cells were treated with 250 nM B3CD for 48 hours. DNA was isolated and analyzed by agarose gel electrophoresis.

The subject of data set [11] is SK-N-SH cells. Put plainly: DNA laddering by agarose gel electrophoresis. Type of data set: cell-based. The following applies: 250 nM, 48 hours. The protocol: as §4
Data set [12] deals with caspase-3. The data set can be described thus: Caspase-3 activation with specific substrate in SK-N-SH cells. The following applies: 250 nM, compared to vehicle treated control. It is filed as cell-based. The method, then:
Caspases are integral to apoptosis in cells. Following the treatment of SK-N-SH cells with 250 nM B3CD, activation of caspase-3 was measured by using specific substrate.

In data set [13] the test system is caspase-3. The data set can be described thus: Caspase-3 immunoblot in NB cells. It is filed as cell-based. The following applies: SMS-KCNR, IMR-32 and SH-SY5Y cells. The protocol:
FIG. 10A. Caspase-3 immunoblot.
(§5) In depth studies were carried out to assess the activation of intrinsic and extrinsic apoptotic pathways. […] Caspase-9 was activated by B3CD in these cells (FIG. 10B), indicating an active role of intrinsic pathway of apoptosis. […] However, caspase-8 was undetectable in IMR-32 and SH-SY5Y cells.

Data set [14] has as its system Caspase-9. Put plainly: Caspase-9 immunoblot in NB cells. Type of data set: cell-based. The following applies: SMS-KCNR, IMR-32 and SH-SY5Y cells. The protocol:
FIG. 10B. Caspase-9 immunoblot.
as §5

Data set [15] deals with cytochrome-c. Put plainly: Cyt-C immunoblot of cytosol of NB cells. As to conditions: SMS-KCNR, SH-SY5Y and IMR-32 cells. It is filed as cell-based. The method, then: FIG. 10C. Cyt-C immunoblot of cytosol of NB cells: A and D-SMS-KCNR; B and E-5H-SY5Y and C and F-IMR-32.
as §5

Data set [16] deals with endothelial cells. The data set can be described thus: Apoptosis in endothelial cells (DNA fragmentation). Type of data set: cell-based. An excerpt: Apoptosis in EC by B3CD was studied by DNA fragmentation and caspase-3 activation analyses as before.

The term viability denotes a read-out of living cells in per cent, often relative to untreated cells.

The structures appear in SMILES notation. Entries after “also recorded” stand apart in the source; their conditions may differ. A value given as a limit tells only on which side of the number the result lay.

As to `C=C1CC[C@H](OC(=O)CBr)C/C1=C/C=C1\CCC[C@]2(C)[C@@H]([C@H](C)CCCC(C)(C)O)CC[C@@H]12` [B3CD, bromoacetic acid 3-{2-[1-(5-hydroxy-1,5-dimethyl-hexyl)-7a-methyl-octahydro-inden-4-ylidene]-ethylidene}-4-methylene-cyclohexyl ester], the “DNA laddering (apoptosis)” value in data set [1] was “not affected”; in data set [2] it was “distinct DNA laddering characteristic of apoptosis”; in data set [3], “distinct DNA laddering characteristic of apoptosis”. The caspase-3 activity entry in data set [4] is reported as “increased; also recorded: activated caspase-3”. Moreover, the “inhibition of angiogenesis / neovascularization (in words)” value in [5] (VEGF present) is “inhibited VEGF induced angiogenesis; also recorded: inhibit”. Also, in data set [5] (compared to untreated controls), the inhibition of neovascularization is around 60%. In data set [5] (versus VEGF control eggs), the “density of fine capillary network” value is given as “markedly reduced”. Moreover, the “TrkB signaling by BDNF” value in data set [6] was “inhibited”. Also, the “clinical signs (lethargy, tolerance to handling, mobility)” value in data set [7] is “showed no such signs”. Moreover, the “toxicity in murine models” value in data set [7] is on record as “no toxicity”. Moreover, the “viability of SK-N-SH cells (in words)” value in data set [8] (0-800 nM) is given as “dose dependent decrease”. In data set [8] (Homo sapiens, SK-N-SH, 200 nM), this molecule returned a viability at 0.2 µM below 20%. The “proliferation, BrdU incorporation” value in [9] is on record as “strong inhibition of proliferation”. The DNA laddering result in [10] and in [11] was “distinct DNA laddering pattern characteristic of apoptosis” each time. The “increase of caspase-3 activity” value in data set [12] is around 6 fold. For the same molecule, the “caspase-3 activation (immunoblot)” value in data set [13] was “activated”. The “caspase-9 activation (immunoblot)” value in [14] is given as “activated”. Moreover, in [15], the “cytochrome-c release into cytosol” value was “released into cytosol”. Also, the DNA fragmentation entry in [16] is “DNA fragmentation characteristic of apoptosis”. Also, in data set [16] (data not shown), the induction of apoptosis result is “induced apoptosis”.
